# From patent US9567371B2, “Short beta-defensin-derived peptides” (Yeda Research and Development Co. Ltd., priority 2009, dated 2017)
# Peptide text beside a SMILES is read from it.
# Tests used:
# Format in all cases: cell-based, human
# pre-B-ALL G2 cells = test: Cell toxicity assay (propidium iodide exclusion, flow cytometry); conditions: 6 and 24 h, FIG. 1
# Description: FIG. 1. […] G2 cells (1×10^6/ml) were cultured in 96-well flat-bottom wells in serum free IMDEM culture medium supplemented with L-glutamine and antibiotics, for 6 and 24 h at 37° C. with the indicated peptides. Untreated cells served as a control. After treatment, cells were stained with propidium iodide (PI) and its exclusion was analyzed by flow cytometry. Data shown are the percentage of Pr (dead) cells. Vertical bars represent standard deviation of duplicate experiments. *P<0.05 compared to untreated control.
# Pre-B-ALL G2 cells and freshly isolated primary human CD3^+ T cells (1×10^6/ml) were cultured in 96-well flat-bottom wells in serum free IMDM or RPMI 1640 medium, respectively, both supplemented with L-glutamine and antibiotics, for 6 and 24 hrs at 37° C. (95% humidity, 5% CO2) with 10 μM, 100 μM or 1 mM of the peptides. Untreated cells served as a control. Cell viability was determined by propidium iodide (PI) exclusion by flow cytometry as described (Goichberg, P., et al., 2006).
# In order to test cytotoxicity of the peptides, human pre-B-ALL G2 cells and freshly isolated primary human CD3^+ T cells (1×10^6/ml) were cultured in with 10 μM, 100 μM or 1 mM of TL-1, AK-1 and cyclic TL-1, as described in the Material and Methods. All tested peptides were not toxic for G2 cells (FIG. 1) as well as for primary human T cells at 10 μM and 100 μM. Even in the highest concentration, 1 mM, the peptides killed only 8-12% and 14-16% cells treated for 6 and 24 hrs, respectively, indicating a very low cytotoxicity of the peptides.
# CCR5 = CCR5 membrane expression (flow cytometry); conditions: tested cells, 3 hrs preincubation
# Description: FIGS. 10A-10C. TL-1 and cTL1 down-regulate CXCR4 expression on human cord blood CD34^+ and G2 cells. Human cord blood CD34^+ and G2 cells were incubated with 1 or 10 μM TL-1 or cyclic TL-1 for 3 hrs or left untreated (UT), washed, stained with CXCR4 and CCR5 Ab and analyzed by flow cytometry. Representative histograms from 3 separate experiments are shown. FIG. 10A—effect of TL-1 on CXCR4 expression. FIG. 10B—effect of cTL-1 on CXCR4 expression. FIG. 10C—effects of TL-1 and cTL-1 on CCR5 expression.
# Various cell types (1×10^6/mL) were pretreated with the peptides for 3 hrs as described above, washed and then stained in staining buffer (PBS supplemented with 0.5% FCS and 0.01% sodium azide) with mouse anti-human CXCR4-PE, CCR5-FITC (R&D Systems, Minneapolis, Minn.) or CD45-FITC (ImmunoQuality Products, Groningen, The Netherlands) mAbs for 30 min at 4° C. and analyzed by flow cytometry as described (Kalinkovich, A., et al., 2006). Appropriate IgG were used as the isotype controls.
# Recently, it has been shown that HBD3 could induce internalization of CXCR4 but not of CCR5 in the CEM T cells expressing both CXCR4 and CCR5 (Feng, Z. et al., 2006) implying CXCR4 specificity in HBD3 action.
# U937 cells = test: Transwell migration towards SDF-1
# Description: Various cells (1×10^6/mL), untreated or pretreated with peptides for 3 hrs at 96-well flat bottom plates at 37° C. were washed, 2×10^5 cells/100 μL were added to the upper chambers of Costar 24-well transwell plates with 5 μm pore filters (Corning Inc., Corning, N.Y.) and allowed to migrate for 2-4 hrs at 37° C. (95% humidity, 5% CO2) spontaneously or towards 50 ng/mL SDF-1 (rhSDF-1, Peprotech, Rocky Hill, N.J.) in medium supplemented with 10% FCS. In the chemotaxis assay, untreated cells were added to the upper chambers and the peptides were added to the lower chambers in serum free medium. Migrated cells were collected from the lower chambers and counted using a flow cytometer. Data are presented as a percentage of migrated cells.
# To address this issue, the cells were incubated with the peptides for 3 hrs, washed and then allowed to migrate towards SDF-1.
# MG-63 cells = test: SDF-1, bFGF and HGF secretion by stromal cells (ELISA of supernatants); conditions: 10 μM, compared with untreated cells
# Description: FIGS. 7A-7F. Effect of TL-1, AK-1 and cyclic TL-1 on SDF-1, bFGF and HGF secretion by different stromal cell lines. MS-5, MBA-15 and MG-63 cells were co-cultured with 10 μM TL-1, AK-1 or cyclic TL-1 in the serum free medium for 6 hrs, or without added peptide (UT). Levels of SDF-1 (A-C), bFGF (D) and HGF (E, F) were detected in the collected supernatants by ELISA. Data shown are the mean±SD of 2 separate experiments. *P<0.05 compared to control.
# SDF-1 levels in tested samples were determined by ELISA as described (Kalinkovich, A., et al., 2006) where the K15C monoclonal antibodies (mAb, INRA, Paris, France) recognizing the first three amino acids of SDF-1 were utilized as a capture Ab (10 μg/mL) in order to measure levels of intact, non-cleaved SDF-1. Levels of basic FGF (bFGF) and HGF in tested samples were determined by using corresponding capture mAbs and polyclonal biotynilated Abs (R&D Systems) as recommended by the manufacturer. In order to examine SDF-1, bFGF and HGF levels in cell supernatants, MS-5, MBA-15 and MG-63 cells were seeded in 24-well Costar wells and cultivated in RPMI 1640 or αMEM Eagle medium, respectively, with 10% FCS. […]
# In order to examine the capability of the peptides to induce secretion of other proteins, the levels of Hepatocyte growth factor (HGF) and Basic fibroblast growth factor (bFGF) were detected in the same supernatants.
structure (smiles),measurement,setting,value
"N=C(N)NCCC[C@@H]1NC(=O)CNC(=O)[C@H](CCCNC(=N)N)NC(=O)[C@H](CCCCN)NC(=O)[C@H](CCCCN)NC(=O)[C@H](CCCNC(=N)N)NC(=O)[C@H](CCCNC(=N)N)NC(=O)[C@H](CS)NC(=O)[C@H](CS)NC(=O)[C@H](CCCCN)NC1=O [cyclic TL-1, 1,10-cyclo[RGRKCCRRKK]] (cyclo(CCRRKKRGRK))",cellular toxicity (percentage of PI+ dead cells),pre-B-ALL G2 cells,Low cellular toxicity
same,membrane expression of CCR5,CCR5,either unaffected or slightly increased
same,SDF-1-induced migration,U937 cells; 1 μM,ineffective
same,inhibition of SDF-1-induced migration,U937 cells; 10 μM,2 fold
same,levels of SDF-1 in supernatants,MG-63 cells,ineffective
